Key:
Assay in all cases: Kinase profiling
Format in all cases: biochemical
ARK5 = biological target: T1, ARK5 (Homo sapiens, UniProt O60285)
T1 construct: purchased ProQinase (Freiburg, Germany)
T1 sequence (O60285 1-661): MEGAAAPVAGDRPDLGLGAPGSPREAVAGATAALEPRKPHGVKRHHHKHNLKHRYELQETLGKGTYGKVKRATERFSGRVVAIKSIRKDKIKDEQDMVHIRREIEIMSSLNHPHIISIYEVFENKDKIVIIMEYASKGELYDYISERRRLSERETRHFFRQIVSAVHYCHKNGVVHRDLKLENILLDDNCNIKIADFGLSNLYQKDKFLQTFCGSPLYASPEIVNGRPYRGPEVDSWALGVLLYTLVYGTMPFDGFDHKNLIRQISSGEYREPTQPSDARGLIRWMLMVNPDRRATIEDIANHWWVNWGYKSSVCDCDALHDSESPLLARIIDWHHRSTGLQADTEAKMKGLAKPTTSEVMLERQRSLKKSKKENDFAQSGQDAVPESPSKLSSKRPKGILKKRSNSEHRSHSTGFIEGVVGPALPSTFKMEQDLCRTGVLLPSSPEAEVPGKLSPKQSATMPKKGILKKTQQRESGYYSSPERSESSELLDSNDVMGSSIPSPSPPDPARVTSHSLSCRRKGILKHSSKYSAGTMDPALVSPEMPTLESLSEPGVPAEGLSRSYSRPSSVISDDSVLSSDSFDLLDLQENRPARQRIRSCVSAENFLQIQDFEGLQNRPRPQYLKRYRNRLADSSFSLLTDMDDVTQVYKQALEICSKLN
Experimental: (§1) The analysis was performed by ProQinase (Freiburg, Germany).

ACK1 = biological target: T2, ACK1 (Homo sapiens, UniProt Q07912)
T2 construct: purchased ProQinase (Freiburg, Germany)
Experimental: as §1

MET = biological target: T3, MET (Homo sapiens, UniProt P08581)
T3 construct: purchased ProQinase (Freiburg, Germany)
Experimental: as §1

MKNK2 = biological target: T4, MKNK2 (Homo sapiens, UniProt Q9HBH9)
T4 construct: purchased ProQinase (Freiburg, Germany)
Experimental: as §1

CAMKK2 = biological target: T5, CAMKK2 (Homo sapiens, UniProt Q96RR4)
T5 construct: purchased ProQinase (Freiburg, Germany)
Experimental: as §1

GRK2 = biological target: T6, GRK2 (Homo sapiens, UniProt P25098)
T6 construct: purchased ProQinase (Freiburg, Germany)
T6 sequence (P25098 1-689): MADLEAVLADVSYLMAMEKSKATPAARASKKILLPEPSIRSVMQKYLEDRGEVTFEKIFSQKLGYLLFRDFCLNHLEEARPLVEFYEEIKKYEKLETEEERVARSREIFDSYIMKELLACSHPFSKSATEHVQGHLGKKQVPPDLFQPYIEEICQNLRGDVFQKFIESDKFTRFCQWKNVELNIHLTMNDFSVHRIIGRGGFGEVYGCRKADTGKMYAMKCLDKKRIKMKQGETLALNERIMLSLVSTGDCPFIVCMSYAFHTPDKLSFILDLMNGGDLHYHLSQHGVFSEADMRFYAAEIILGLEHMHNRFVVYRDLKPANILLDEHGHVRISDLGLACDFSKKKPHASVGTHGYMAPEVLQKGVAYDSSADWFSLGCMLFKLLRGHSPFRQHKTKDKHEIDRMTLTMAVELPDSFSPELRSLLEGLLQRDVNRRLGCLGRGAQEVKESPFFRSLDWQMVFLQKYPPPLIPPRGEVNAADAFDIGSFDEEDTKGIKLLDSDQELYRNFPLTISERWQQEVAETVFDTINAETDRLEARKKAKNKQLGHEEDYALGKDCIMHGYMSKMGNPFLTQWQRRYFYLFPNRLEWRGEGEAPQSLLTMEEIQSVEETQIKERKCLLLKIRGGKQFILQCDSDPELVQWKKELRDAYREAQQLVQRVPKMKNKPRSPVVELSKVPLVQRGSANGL
Experimental: as §1

EPHA6 = biological target: T7, EPHA6 (Homo sapiens, UniProt Q9UF33)
T7 construct: purchased ProQinase (Freiburg, Germany)
T7 sequence (Q9UF33 23-1036): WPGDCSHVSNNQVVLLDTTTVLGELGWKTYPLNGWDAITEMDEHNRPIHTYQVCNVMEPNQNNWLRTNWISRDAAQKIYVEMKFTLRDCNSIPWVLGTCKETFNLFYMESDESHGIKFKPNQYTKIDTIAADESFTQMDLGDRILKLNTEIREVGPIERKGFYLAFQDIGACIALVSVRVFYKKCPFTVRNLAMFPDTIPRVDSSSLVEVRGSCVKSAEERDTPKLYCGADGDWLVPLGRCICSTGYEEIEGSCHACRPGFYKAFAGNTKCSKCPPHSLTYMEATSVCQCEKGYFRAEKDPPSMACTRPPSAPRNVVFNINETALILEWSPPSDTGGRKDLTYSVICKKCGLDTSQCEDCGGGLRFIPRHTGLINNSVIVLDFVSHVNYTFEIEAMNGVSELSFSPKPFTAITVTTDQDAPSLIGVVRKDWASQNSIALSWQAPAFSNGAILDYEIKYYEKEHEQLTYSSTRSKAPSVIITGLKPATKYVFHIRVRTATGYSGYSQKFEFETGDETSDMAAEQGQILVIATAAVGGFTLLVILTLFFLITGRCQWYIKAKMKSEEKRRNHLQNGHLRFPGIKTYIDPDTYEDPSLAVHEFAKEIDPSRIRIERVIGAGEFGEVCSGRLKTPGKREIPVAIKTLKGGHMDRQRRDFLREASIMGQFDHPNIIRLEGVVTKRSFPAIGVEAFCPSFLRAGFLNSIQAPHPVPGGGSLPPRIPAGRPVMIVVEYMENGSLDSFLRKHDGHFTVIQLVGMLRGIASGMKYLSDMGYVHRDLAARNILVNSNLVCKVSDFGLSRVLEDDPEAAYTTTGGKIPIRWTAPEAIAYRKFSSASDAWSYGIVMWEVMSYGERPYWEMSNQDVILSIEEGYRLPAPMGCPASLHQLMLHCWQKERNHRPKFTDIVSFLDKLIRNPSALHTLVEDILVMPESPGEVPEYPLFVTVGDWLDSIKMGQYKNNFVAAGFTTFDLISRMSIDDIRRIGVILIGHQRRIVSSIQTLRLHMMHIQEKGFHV
Experimental: as §1

T4 sequence (Q9HBH9 whole entry): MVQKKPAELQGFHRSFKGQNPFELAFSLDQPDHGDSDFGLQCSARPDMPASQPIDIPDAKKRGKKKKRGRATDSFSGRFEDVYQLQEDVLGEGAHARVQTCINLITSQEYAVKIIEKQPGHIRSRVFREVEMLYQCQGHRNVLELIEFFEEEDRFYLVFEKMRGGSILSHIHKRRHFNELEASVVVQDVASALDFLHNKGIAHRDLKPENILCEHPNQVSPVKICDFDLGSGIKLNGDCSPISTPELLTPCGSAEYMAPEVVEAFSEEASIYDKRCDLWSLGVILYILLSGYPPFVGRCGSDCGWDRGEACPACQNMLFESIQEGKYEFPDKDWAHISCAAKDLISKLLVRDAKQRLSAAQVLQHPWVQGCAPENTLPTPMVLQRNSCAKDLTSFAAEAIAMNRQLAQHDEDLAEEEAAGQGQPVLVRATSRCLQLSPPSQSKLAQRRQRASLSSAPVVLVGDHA
T3 sequence (P08581 25-1390): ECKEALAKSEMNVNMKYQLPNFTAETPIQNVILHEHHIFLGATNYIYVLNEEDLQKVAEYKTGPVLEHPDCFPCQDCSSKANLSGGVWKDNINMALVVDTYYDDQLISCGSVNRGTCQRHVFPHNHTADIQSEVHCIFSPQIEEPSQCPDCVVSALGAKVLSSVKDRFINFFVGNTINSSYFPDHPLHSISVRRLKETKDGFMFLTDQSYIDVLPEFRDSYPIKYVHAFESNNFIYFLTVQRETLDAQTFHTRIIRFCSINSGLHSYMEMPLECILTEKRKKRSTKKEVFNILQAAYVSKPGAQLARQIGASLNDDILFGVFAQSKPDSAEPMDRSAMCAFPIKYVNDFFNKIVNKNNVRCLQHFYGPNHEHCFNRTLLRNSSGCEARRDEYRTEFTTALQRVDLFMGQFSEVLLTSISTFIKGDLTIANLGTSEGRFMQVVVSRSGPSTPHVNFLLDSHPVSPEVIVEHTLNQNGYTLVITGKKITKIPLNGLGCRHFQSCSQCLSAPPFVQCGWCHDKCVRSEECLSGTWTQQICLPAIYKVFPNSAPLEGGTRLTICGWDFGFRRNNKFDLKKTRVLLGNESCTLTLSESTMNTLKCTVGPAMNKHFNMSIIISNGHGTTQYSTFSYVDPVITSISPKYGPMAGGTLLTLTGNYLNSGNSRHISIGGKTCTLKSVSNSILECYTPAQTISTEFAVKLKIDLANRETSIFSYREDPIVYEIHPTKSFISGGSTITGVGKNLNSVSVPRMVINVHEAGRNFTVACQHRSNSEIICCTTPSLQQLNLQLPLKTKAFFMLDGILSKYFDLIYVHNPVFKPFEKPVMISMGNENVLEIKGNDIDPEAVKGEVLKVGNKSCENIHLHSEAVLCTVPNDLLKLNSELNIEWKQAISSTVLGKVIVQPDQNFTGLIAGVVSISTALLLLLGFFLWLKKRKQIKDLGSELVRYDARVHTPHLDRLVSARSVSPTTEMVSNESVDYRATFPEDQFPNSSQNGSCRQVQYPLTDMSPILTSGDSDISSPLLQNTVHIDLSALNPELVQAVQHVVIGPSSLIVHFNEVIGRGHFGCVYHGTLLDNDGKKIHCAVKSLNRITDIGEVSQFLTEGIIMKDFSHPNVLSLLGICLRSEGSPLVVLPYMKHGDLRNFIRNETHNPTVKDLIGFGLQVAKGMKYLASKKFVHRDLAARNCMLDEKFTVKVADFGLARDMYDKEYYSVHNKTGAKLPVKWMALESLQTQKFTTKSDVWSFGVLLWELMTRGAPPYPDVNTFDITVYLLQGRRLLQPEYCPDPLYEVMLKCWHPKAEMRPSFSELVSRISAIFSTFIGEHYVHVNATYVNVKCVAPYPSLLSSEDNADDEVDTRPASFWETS
T2 sequence (Q07912 whole entry): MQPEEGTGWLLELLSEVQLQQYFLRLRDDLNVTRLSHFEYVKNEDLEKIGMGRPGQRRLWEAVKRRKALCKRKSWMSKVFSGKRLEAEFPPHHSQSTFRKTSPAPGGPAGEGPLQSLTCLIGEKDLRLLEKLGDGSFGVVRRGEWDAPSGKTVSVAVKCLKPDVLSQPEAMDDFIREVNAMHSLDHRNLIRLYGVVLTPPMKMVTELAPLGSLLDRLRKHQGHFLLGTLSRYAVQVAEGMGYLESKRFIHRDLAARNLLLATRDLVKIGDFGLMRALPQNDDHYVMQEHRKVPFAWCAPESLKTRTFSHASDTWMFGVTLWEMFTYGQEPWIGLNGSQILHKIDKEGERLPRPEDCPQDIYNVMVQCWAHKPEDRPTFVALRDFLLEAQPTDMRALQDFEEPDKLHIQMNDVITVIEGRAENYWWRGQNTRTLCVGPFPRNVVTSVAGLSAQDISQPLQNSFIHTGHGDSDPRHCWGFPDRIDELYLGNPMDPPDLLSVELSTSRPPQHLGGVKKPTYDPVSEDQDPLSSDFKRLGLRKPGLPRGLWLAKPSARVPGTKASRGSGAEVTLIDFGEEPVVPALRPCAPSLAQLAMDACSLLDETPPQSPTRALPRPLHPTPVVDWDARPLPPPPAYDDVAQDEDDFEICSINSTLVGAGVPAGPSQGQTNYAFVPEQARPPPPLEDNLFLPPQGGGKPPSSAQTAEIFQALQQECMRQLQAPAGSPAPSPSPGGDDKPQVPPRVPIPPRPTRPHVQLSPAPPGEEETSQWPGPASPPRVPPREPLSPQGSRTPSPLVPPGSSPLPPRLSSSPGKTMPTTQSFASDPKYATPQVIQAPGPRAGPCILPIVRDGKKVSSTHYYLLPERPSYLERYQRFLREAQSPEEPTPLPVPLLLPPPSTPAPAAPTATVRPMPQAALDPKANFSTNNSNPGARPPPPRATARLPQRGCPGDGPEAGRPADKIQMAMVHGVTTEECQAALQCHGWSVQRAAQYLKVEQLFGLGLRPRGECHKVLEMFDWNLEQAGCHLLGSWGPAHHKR
T5 sequence (Q96RR4 whole entry): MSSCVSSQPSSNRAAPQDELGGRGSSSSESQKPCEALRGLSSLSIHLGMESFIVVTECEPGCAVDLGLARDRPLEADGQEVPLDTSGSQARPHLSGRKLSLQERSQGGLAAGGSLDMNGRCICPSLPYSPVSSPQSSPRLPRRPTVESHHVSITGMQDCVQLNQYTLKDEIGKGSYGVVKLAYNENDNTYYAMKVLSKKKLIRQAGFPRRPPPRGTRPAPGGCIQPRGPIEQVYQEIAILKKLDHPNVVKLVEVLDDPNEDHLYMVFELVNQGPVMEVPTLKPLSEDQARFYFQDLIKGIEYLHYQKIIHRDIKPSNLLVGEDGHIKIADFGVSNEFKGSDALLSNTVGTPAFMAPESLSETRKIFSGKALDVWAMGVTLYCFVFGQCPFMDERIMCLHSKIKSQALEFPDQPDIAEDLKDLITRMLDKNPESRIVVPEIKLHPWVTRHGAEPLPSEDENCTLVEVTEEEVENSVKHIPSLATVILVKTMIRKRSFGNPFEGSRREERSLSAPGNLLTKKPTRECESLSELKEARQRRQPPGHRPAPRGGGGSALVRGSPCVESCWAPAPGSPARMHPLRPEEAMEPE

SMILES	Residual activity (ARK5; 1.0E-05 M)	Residual activity (ARK5; 1.0E-06 M)	Residual activity (ACK1; 1.0E-05 M)	Residual activity (ACK1; 1.0E-06 M)	Residual activity (MET; 1.0E-05 M)	Residual activity (MET; 1.0E-06 M)	Residual activity (MKNK2; 1.0E-05 M)	Residual activity (MKNK2; 1.0E-06 M)	Residual activity (CAMKK2; 1.0E-05 M)	Residual activity (CAMKK2; 1.0E-06 M)	Residual activity (GRK2; 1.0E-05 M)	Residual activity (GRK2; 1.0E-06 M)	Residual activity (EPHA6; 1.0E-05 M)	Residual activity (EPHA6; 1.0E-06 M)
O=C(Cc1ccccc1)Nc1ccc(F)c(Nc2ccc3c(c2)CCCCC3=O)c1 [Compound 100]	91 % of control	90 % of control	92 % of control	112 % of control	89 % of control	101 % of control	115 % of control	112 % of control	95 % of control	97 % of control	97 % of control	97 % of control	80 % of control	110 % of control
O=C(Nc1ccc(F)c(Nc2ccc3c(c2)CCCCC3=O)c1)c1cccc(F)c1 [Compound 109]	88 % of control	92 % of control	89 % of control	96 % of control	91 % of control	95 % of control	107 % of control	104 % of control	81 % of control	84 % of control	88 % of control	84 % of control	94 % of control	100 % of control

From PMC9030254, “Target Hopping from Protein Kinases to PXR: Identification of Small-Molecule Protein Kinase Inhibitors as Selective Modulators of Pregnane X Receptor from TüKIC Library” (Cells, 2022)
